Results as given in patent US8975417B2, “Pyrazolopyrrolidine derivatives and their use in the treatment of disease” (Novartis AG, priority 2013, dated 2015).

Legend:
[1] = molecular target: His-CREBBP (1081-1197) bromodomain (Homo sapiens (Human), UniProt Q92793); test: AlphaScreen in-vitro binding assay for CREBBP; conditions: biochemical
In short: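 Ni-chelate acceptor and streptavidin donor beads (45 µg/mL each, in 50 mM HEPES pH 7.5, 150 mM NaCl, 0.02% BSA) were then added for 60 min at room temperature. IC50 came from 8-point non-linear regression.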

[2] = molecular target: nuclear BRD4-NUT foci in HCC2494 NUT midline carcinoma cells (Homo sapiens (Human), UniProt O60885+Q86Y26); test: Nut-foci formation assay; assay type: cell-based; conditions: 24 hours, read-out: HCS Brd4-NUT IC50
In short: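 HCC2494 cells carrying BRD4-NUT, treated 24 h at 37 °C with 3-fold dilutions from 10 μM. Fixed and stained with anti-NUT antibody, imaged automatically to count nuclear foci per nucleus.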

[3] = molecular target: His-Brd4(44-477) (Homo sapiens (Human), UniProt O60885); test: TR-FRET in-vitro binding assay for BRD4; conditions: biochemical
In short: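 His-tagged BRD2(60-472), BRD3(20-477) or BRD4(44-477), 45 nM in dispensing solution, with 60 nM tetra-acetylated histone H4 peptide (AcK5/8/12/16) in dispensing solution; HEPES pH 7.5, 50 mM NaCl, 0.1% BSA, 30 °C, 35 min. Eu-anti-His6 antibody plus streptavidin-APC added for TR-FRET read-out; 8-point compound dilutions.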

Sequence of His-CREBBP (1081-1197) bromodomain (Q92793 1081-1197): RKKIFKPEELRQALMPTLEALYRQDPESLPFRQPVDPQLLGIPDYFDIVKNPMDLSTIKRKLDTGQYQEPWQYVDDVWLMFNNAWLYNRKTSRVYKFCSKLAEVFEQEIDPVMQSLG

Cc1nn(C(C)C)c2c1[C@@H](c1ccc(Cl)cc1)N(c1cc(C)c(=O)n(C)c1)C2=O [Example 104, (R)-4-(4-chlorophenyl)-5-(1,5-dimethyl-6-oxo-1,6-dihydropyridin-3-yl)-1-isopropyl-3-methyl-4,5-dihydropyrrolo[3,4-c]pyrazol-6(1H)-one]
IC50 [1]: 1200 nM | IC50 [2]: 11.3 nM | IC50 [3]: 13 nM

Cc1nn(-c2ccnn2C)c2c1C(c1ccc(Cl)cc1)N(c1cc(C)c3nnc(C)n3c1)C2=O (stereo not drawn) [Example 90, 4-(4-chlorophenyl)-5-(3,8-dimethyl-[1,2,4]triazolo[4,3-a]pyridin-6-yl)-3-methyl-1-(1-methyl-1H-pyrazol-5-yl)-4,5-dihydropyrrolo[3,4-c]pyrazol-6(1H)-one]
IC50 [1]: > 37000 nM | IC50 [2]: 45 nM | IC50 [3]: 15 nM

COc1ncccc1-n1nc(C)c2c1C(=O)N(c1cc(C)c(=O)n(C)c1)[C@H]2c1ccc(Cl)cc1 [Example 127, (S)-4-(4-chlorophenyl)-5-(1,5-dimethyl-6-oxo-1,6-dihydropyridin-3-yl)-1-(2-methoxypyridin-3-yl)-3-methyl-4,5-dihydropyrrolo[3,4-c]pyrazol-6(1H)-one]
IC50 [1]: > 37000 nM | IC50 [2]: > 10000 nM | IC50 [3]: 5700 nM

CNC(=O)n1nc(C)c2c1C(=O)N(c1cc(C)c3nnc(C)n3c1)C2c1ccc(Cl)cc1 (stereo not drawn) [Example 145, 4-(4-chlorophenyl)-5-(3,8-dimethyl-[1,2,4]triazolo[4,3-a]pyridin-6-yl)-N,3-dimethyl-6-oxo-5,6-dihydropyrrolo[3,4-c]pyrazole-1(4H)-carboxamide]
IC50 [1]: > 37000 nM | IC50 [2]: 108 nM | IC50 [3]: 140 nM

Cc1nn(-c2ccnn2C)c2c1C(c1ccc(Cl)cc1)N(c1cc(C)c(=O)n(C)c1)C2=O (racemic) [Example 74, 4-(4-chlorophenyl)-5-(1,5-dimethyl-6-oxo-1,6-dihydropyridin-3-yl)-3-methyl-1-(1-methyl-1H-pyrazol-5-yl)-4,5-dihydropyrrolo[3,4-c]pyrazol-6(1H)-one]
IC50 [1]: 6400 nM | IC50 [2]: 44.2 nM | IC50 [3]: 67 nM

Cc1nn(C(C)C)c2c1[C@H](c1ccc(Cl)cc1)N(c1cc(C)c(=O)n(C)c1)C2=O [Example 103, (S)-4-(4-chlorophenyl)-5-(1,5-dimethyl-6-oxo-1,6-dihydropyridin-3-yl)-1-isopropyl-3-methyl-4,5-dihydropyrrolo[3,4-c]pyrazol-6(1H)-one]
IC50 [1]: > 37000 nM | IC50 [2]: > 10000 nM | IC50 [3]: 11000 nM

COc1ncccc1-n1nc(C)c2c1C(=O)N(c1cc(C)c3nnn(C)c3n1)C2c1ccc(Cl)cc1 (stereo not drawn) [Example 109, 4-(4-chlorophenyl)-5-(3,7-dimethyl-3H-[1,2,3]triazolo[4,5-b]pyridin-5-yl)-1-(2-methoxypyridin-3-yl)-3-methyl-4,5-dihydropyrrolo[3,4-c]pyrazol-6(1H)-one]
IC50 [1]: > 37000 nM | IC50 [2]: 43.8 nM | IC50 [3]: 17 nM

CCn1nc(C)c2c1C(=O)N(c1cc(C)c3nnc(C)n3c1)C2c1ccc(Cl)cc1 (stereo not drawn) [Example 116, 4-(4-chlorophenyl)-5-(3,8-dimethyl-[1,2,4]triazolo[4,3-a]pyridin-6-yl)-1-ethyl-3-methyl-4,5-dihydropyrrolo[3,4-c]pyrazol-6(1H)-one]
IC50 [1]: 15000 nM | IC50 [2]: 27 nM | IC50 [3]: 32 nM

CCc1nn(C2CC2)c2c1C(c1ccc(Cl)cc1)N(c1cc(C)c3nnc(C)n3c1)C2=O (stereo not drawn) [Example 70, 4-(4-chlorophenyl)-1-cyclopropyl-5-(3,8-dimethyl-[1,2,4]triazolo[4,3-a]pyridin-6-yl)-3-ethyl-4,5-dihydropyrrolo[3,4-c]pyrazol-6(1H)-one]
IC50 [1]: 11000 nM | IC50 [2]: 11.4 nM | IC50 [3]: 24 nM

Cc1nn(C2CC2)c2c1C(c1ccc(Cl)cc1)N(c1cc(C)c3nnn(C)c3n1)C2=O (stereo not drawn) [Example 110, 4-(4-chlorophenyl)-1-cyclopropyl-5-(3,7-dimethyl-3H-[1,2,3]triazolo[4,5-b]pyridin-5-yl)-3-methyl-4,5-dihydropyrrolo[3,4-c]pyrazol-6(1H)-one]
IC50 [1]: > 37000 nM | IC50 [2]: 6.42 nM | IC50 [3]: 12 nM

CCc1nn(C2CC2)c2c1C(c1ccc(Cl)cc1)N(c1cc(OC)c3nnc(C)n3c1)C2=O (stereo not drawn) [Example 84, 4-(4-chlorophenyl)-1-cyclopropyl-3-ethyl-5-(8-methoxy-3-methyl-[1,2,4]triazolo[4,3-a]pyridin-6-yl)-4,5-dihydropyrrolo[3,4-c]pyrazol-6(1H)-one]
IC50 [1]: > 37000 nM | IC50 [2]: 92 nM | IC50 [3]: 28 nM

COc1ncccc1-n1nc(C)c2c1C(=O)N(c1cc(Cl)c(=O)n(C)c1)C2c1ccc(Cl)cc1 (stereo not drawn) [Example 72, 5-(5-chloro-1-methyl-6-oxo-1,6-dihydropyridin-3-yl)-4-(4-chlorophenyl)-1-(2-methoxypyridin-3-yl)-3-methyl-4,5-dihydropyrrolo[3,4-c]pyrazol-6(1H)-one]
IC50 [1]: 8200 nM | IC50 [2]: 141 nM | IC50 [3]: 79 nM

CCc1nn(-c2ccnn2C)c2c1C(c1ccc(Cl)cc1)N(c1cc(C)c(=O)n(C)c1)C2=O (stereo not drawn) [Example 89, 4-(4-chlorophenyl)-5-(1,5-dimethyl-6-oxo-1,6-dihydropyridin-3-yl)-3-ethyl-1-(1-methyl-1H-pyrazol-5-yl)-4,5-dihydropyrrolo[3,4-c]pyrazol-6(1H)-one]
IC50 [1]: 2500 nM | IC50 [2]: 44.3 nM | IC50 [3]: 47 nM

Cc1nn(C(=O)N(C)C)c2c1[C@@H](c1ccc(Cl)cc1)N(c1cc(C)c3nnc(C)n3c1)C2=O [Example 149, (R)-4-(4-chlorophenyl)-5-(3,8-dimethyl-[1,2,4]triazolo[4,3-a]pyridin-6-yl)-N,N,3-trimethyl-6-oxo-5,6-dihydropyrrolo[3,4-c]pyrazole-1(4H)-carboxamide]
IC50 [1]: 6900 nM | IC50 [2]: 35.3 nM | IC50 [3]: 30 nM

Cc1nn(-c2ccnn2C)c2c1[C@@H](c1ccc(Cl)cc1)N(c1cc(C)c(=O)n(C)c1)C2=O [Example 120, (R)-4-(4-chlorophenyl)-5-(1,5-dimethyl-6-oxo-1,6-dihydropyridin-3-yl)-3-methyl-1-(1-methyl-1H-pyrazol-5-yl)-4,5-dihydropyrrolo[3,4-c]pyrazol-6(1H)-one]
IC50 [1]: 4300 nM | IC50 [2]: 65.4 nM | IC50 [3]: 55 nM

Cc1nn(-c2cncn2C)c2c1C(c1ccc(Cl)cc1)N(c1cc(C)c(=O)n(C)c1)C2=O (stereo not drawn) [Example 83, 4-(4-chlorophenyl)-5-(1,5-dimethyl-6-oxo-1,6-dihydropyridin-3-yl)-3-methyl-1-(1-methyl-1H-imidazol-5-yl)-4,5-dihydropyrrolo[3,4-c]pyrazol-6(1H)-one]
IC50 [1]: 6100 nM | IC50 [2]: 96.8 nM | IC50 [3]: 91 nM

Cc1cc(N2C(=O)c3nn(C(=O)N(C)C)c(C)c3C2c2ccc(Cl)cc2)cn(C)c1=O (stereo not drawn) [Example 141, 4-(4-chlorophenyl)-5-(1,5-dimethyl-6-oxo-1,6-dihydropyridin-3-yl)-N,N,3-trimethyl-6-oxo-5,6-dihydropyrrolo[3,4-c]pyrazole-2(4H)-carboxamide]
IC50 [1]: 1500 nM | IC50 [2]: 231 nM | IC50 [3]: 170 nM

COc1ncc(-n2nc(C)c3c2C(=O)N(c2cc(C)c(=O)n(C)c2)[C@H]3c2ccc(Cl)cc2)c(OC)n1 [Example 99, (S)-4-(4-chlorophenyl)-1-(2,4-dimethoxypyrimidin-5-yl)-5-(1,5-dimethyl-6-oxo-1,6-dihydropyridin-3-yl)-3-methyl-4,5-dihydropyrrolo[3,4-c]pyrazol-6(1H)-one]
IC50 [1]: > 37000 nM | IC50 [2]: 8860 nM | IC50 [3]: 7800 nM

CCc1nn(CCO)c2c1C(c1ccc(Cl)cc1)N(c1cc(C)c3onc(C)c3c1)C2=O (stereo not drawn) [Example 79, 4-(4-chlorophenyl)-5-(3,7-dimethylbenzo[d]isoxazol-5-yl)-3-ethyl-1-(2-hydroxyethyl)-4,5-dihydropyrrolo[3,4-c]pyrazol-6(1H)-one]
IC50 [1]: 11000 nM | IC50 [2]: 150 nM | IC50 [3]: 78 nM

CNC(=O)n1nc(C)c2c1C(=O)N(c1cc(C)c(=O)n(C)c1)C2c1ccc(Cl)cc1 (stereo not drawn) [Example 143, 4-(4-chlorophenyl)-5-(1,5-dimethyl-6-oxo-1,6-dihydropyridin-3-yl)-N,3-dimethyl-6-oxo-5,6-dihydropyrrolo[3,4-c]pyrazole-1(4H)-carboxamide]
IC50 [1]: > 37000 nM | IC50 [2]: 206 nM | IC50 [3]: 300 nM

Cc1nn(C2CN(C)C2)c2c1C(c1ccc(Cl)cc1)N(c1cc(C)c3nnc(C)n3c1)C2=O (stereo not drawn) [Example 157, 4-(4-chlorophenyl)-5-(3,8-dimethyl-[1,2,4]triazolo[4,3-a]pyridin-6-yl)-3-methyl-1-(1-methylazetidin-3-yl)-4,5-dihydropyrrolo[3,4-c]pyrazol-6(1H)-one]
IC50 [1]: > 37000 nM | IC50 [2]: 99.7 nM | IC50 [3]: 77 nM

Cc1cc(N2C(=O)c3c(c(C4CC4)nn3-c3ccnn3C)C2c2ccc(Cl)cc2)cn2c(C)nnc12 (stereo not drawn) [Example 117, 4-(4-chlorophenyl)-3-cyclopropyl-5-(3,8-dimethyl-[1,2,4]triazolo[4,3-a]pyridin-6-yl)-1-(1-methyl-1H-pyrazol-5-yl)-4,5-dihydropyrrolo[3,4-c]pyrazol-6(1H)-one]
IC50 [1]: > 37000 nM | IC50 [2]: 24.3 nM | IC50 [3]: 39 nM

COc1ncccc1-n1nc(C)c2c1C(=O)N(c1cc(C)c3nnc(C)n3n1)C2c1ccc(Cl)cc1 (stereo not drawn) [Example 111, 4-(4-chlorophenyl)-5-(3,8-dimethyl-[1,2,4]triazolo[4,3-b]pyridazin-6-yl)-1-(2-methoxypyridin-3-yl)-3-methyl-4,5-dihydropyrrolo[3,4-c]pyrazol-6(1H)-one]
IC50 [1]: 29700 nM | IC50 [2]: 34.3 nM | IC50 [3]: 17 nM
